{"source": "patent US20030108955A1", "about": "“Dioxin derivatives and method of measurement therewith” (priority 2000, published 2003)", "origin": "cited, not measured here", "settings": "general knowledge"}
{"smiles": "O=C(O)CCCC[C@@H]1SC[C@@H]2NC(=O)N[C@@H]21", "note": "[biotin]", "values": [{"measurement": "water solubility", "value": "insoluble to water"}]}
